Data set [1] in a line: Perilymph Conc. listed for agents (Tables 14-25).
For data set [2] the following is noted: cited from earlier work.
In a further data set the test system is Lgr5+ cells. As to the kind of experiment: Lgr5+ Assay (Lgr5+ cell assay in vitro). It counts as cell-based.
A short description of data set [3]: Reconstitution time of lyophilized compositions (Tables E, 28, 35). It counts as physicochemical. Conditions: for Reconstitution time (minutes) water + DMSO / Reconstitution time (minutes) with water: lyophilized 16.15% P407 with salt at 533.25 mM; for Reconstitution time (minutes) water + DMSO: reconstituted with Diluent ([…] DMSO in water); for Reconstitution time (minutes) with water: reconstituted with water; for reconstitution time of lyophilized poloxamer with added organic acid salt: poloxamer 16.15%, salt 533.25 mM. The procedure: Diluent 1, 0.85 mL+lyophilized cake. […] Gentle tapping on the exterior of the vessel to help the cake dissolve in the Diluent may be required while keeping it in fridge (or ice bath). To avoid degradation of the composition, minimize stirring and/or vortexing.
Diluent 1, 0.95 mL+Placebo cake: Using a syringe, add the Diluent to the Placebo cake, and rest in a fridge or ice bath (2-8° C.) for 60 minutes or until clear solution is formed. Gentle tapping on the exterior of the vessel to help the cake dissolve in the Diluent may be required while keeping it in fridge (or ice bath). To avoid degradation of the composition, minimize stirring and/or vortexing.
Powder P407 (i.e. non-lyophilized) can be obtained from BASF.
Reconstitution of lyophilized P407 (Placebo) and powder P407 was done using 850 μL Diluent (see above for example preparations of a Diluent) in a vial.
Therefore, to probe the effect of salts other than sodium valproate on reconstitution time, a poloxamer solution at 16.15% concentration either alone or including a salt (e.g. an inorganic salt or organic acid salt) at a concentration of 533.25 mM, was lyophilized. The lyophilized material was then reconstituted using Diluent for reconstitution (6.4% DMSO by wt. % in water) or with water.
Building on the results of Examples 14 to 16, further lyophilized compositions were manufactured and had their reconstitution times evaluated. […] The further lyophilized compositions were made in accordance with Example 10, and reconstituted in accordance with Example 12.

The next data set concerns the target gamma secretase. Conditions: cited from earlier work; for Lit cell conc: Table 23.
Another data set has as its system KDM. Conditions: cited from earlier work.
Data set [4] concerns the target T1, LSD1 (Homo sapiens, UniProt O60341). The note with it: Table 18, LSD1; read-out: pKi or IC50 (converted); cited from earlier work.
The next data set addresses EZH2 (Homo sapiens, UniProt Q15910). Conditions: Table 19, EZH2; read-out: pKi or IC50 (converted); cited from earlier work.
Data set [5] deals with T1, LSD1. Conditions: Table 18; cited from earlier work.
[6] abbreviates: Table 23, Aβ40, read-out: Lit cell conc IC50, Aβ40.
Setting [7] is: Table 23, Aβ42, read-out: Lit cell conc IC50, Aβ42.
Setting [8] is: Table 21, KDM 5, read-out: Select KDM 5.

pEC50, pIC50: −log10 of the molar value. Like-named read-outs stand apart in the source and are kept apart here.

We go through 45 molecules from patent US20220192984A1, “PHARMACEUTICAL COMPOSITIONS COMPRISING OTIC THERAPEUTIC AGENTS AND RELATED METHODS” (Frequency Therapeutics, Inc., priority 2018, published 2022).

EZH2, sequence (Q15910 whole entry, species assumed): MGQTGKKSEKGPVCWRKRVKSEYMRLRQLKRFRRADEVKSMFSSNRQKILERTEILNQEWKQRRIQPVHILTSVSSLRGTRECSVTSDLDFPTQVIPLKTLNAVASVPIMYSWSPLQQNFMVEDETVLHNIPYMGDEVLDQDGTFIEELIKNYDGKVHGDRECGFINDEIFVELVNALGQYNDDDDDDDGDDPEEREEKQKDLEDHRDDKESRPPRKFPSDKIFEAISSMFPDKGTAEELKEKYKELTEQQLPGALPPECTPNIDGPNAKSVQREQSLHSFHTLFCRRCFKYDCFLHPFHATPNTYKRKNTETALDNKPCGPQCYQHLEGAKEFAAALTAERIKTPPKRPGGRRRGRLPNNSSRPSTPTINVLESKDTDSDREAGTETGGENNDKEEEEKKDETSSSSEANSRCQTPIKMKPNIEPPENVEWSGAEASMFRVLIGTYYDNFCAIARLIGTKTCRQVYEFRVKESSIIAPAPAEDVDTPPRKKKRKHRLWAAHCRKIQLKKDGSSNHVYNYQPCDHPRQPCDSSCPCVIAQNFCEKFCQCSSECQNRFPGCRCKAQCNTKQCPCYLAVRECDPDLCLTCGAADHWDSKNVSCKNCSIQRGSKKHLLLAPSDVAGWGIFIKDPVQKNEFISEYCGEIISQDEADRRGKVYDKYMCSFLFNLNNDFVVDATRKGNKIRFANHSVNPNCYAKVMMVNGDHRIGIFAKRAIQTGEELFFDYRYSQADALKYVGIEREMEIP
EZH2, sequence (O75530 whole entry partner, species assumed): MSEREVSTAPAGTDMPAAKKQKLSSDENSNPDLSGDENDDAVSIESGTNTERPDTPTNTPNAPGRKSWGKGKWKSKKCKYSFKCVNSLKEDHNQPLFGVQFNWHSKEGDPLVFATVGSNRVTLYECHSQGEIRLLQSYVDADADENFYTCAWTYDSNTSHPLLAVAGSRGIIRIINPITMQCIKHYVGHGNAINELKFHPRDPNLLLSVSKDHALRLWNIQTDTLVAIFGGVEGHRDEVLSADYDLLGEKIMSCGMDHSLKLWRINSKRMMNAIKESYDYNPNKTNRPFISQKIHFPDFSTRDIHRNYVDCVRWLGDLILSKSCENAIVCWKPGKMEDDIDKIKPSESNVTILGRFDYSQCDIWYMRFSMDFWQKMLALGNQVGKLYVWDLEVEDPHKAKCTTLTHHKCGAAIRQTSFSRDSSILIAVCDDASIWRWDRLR
EZH2, sequence (Q15022 whole entry partner, species assumed): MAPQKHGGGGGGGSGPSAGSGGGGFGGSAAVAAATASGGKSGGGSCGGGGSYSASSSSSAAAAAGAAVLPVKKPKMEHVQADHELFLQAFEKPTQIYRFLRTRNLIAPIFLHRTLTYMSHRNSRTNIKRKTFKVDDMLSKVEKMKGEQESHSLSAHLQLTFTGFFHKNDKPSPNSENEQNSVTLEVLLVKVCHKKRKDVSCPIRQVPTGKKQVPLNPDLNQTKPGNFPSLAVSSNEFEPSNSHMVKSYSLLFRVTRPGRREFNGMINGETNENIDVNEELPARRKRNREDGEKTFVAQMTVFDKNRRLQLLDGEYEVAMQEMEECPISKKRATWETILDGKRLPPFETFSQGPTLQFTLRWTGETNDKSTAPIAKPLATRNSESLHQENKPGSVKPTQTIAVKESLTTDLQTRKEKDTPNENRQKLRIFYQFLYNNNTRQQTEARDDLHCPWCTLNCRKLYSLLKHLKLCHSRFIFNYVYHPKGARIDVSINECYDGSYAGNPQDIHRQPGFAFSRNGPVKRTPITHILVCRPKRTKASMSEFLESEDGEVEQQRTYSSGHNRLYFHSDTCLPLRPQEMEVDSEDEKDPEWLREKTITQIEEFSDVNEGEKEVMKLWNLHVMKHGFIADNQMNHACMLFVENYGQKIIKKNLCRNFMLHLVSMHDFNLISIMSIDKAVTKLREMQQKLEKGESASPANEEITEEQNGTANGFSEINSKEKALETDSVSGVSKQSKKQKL

As to `O=C(N/N=C/c1c(O)ccc2ccccc12)c1ccncc1` [AS 8351], the “Perilymph Conc” value in [1] (Table 21) lay within 1 to 3 µM. In addition, the “Human In Vivo Conc” value in data set [2] (Table 21) is 1 to 3 µM. The “Lgr5+ Assay” value with Lgr5+ cells (Table 21) lay within 1 to 3 µM.
In the case of “Magnesium divalproate [reference compound]”, in [3], the “Reconstitution time (minutes) water + DMSO” value came out at 14 min, the “Reconstitution time (minutes) with water” value amounted to 14 min and the “reconstitution time of lyophilized poloxamer with added organic acid salt” value stood at 420 min.
Consider `CC(C)[C@H](O)C(=O)N[C@@H](C)C(=O)N[C@@H]1C(=O)N(C)CCc2ccccc21` [Semagacestat LY 450139], for which the pIC50 on gamma secretase (Table 23, Aβ38, read-out: Lit cell conc IC50, Aβ38) was 7.92; at gamma secretase (setting [6]) it was 7.92; at gamma secretase (setting [7]) it was 7.96.
For the molecule `C#CCC(CCCCCC)C(=O)[O-].[Na+]` (stereo not drawn) [Sodium 2-(prop-2-yn-l-yl) Octanoate], in [3], the “Reconstitution time (minutes) water + DMSO” value amounted to 4 min and the “Reconstitution time (minutes) with water” value stood at 4 min.
On to `O=S(=O)(NC1CCC(c2cc(F)ccc2F)(S(=O)(=O)c2ccc(Cl)cc2)CC1)C(F)(F)F` (stereo not drawn) [MRK 560], for which the Lit cell conc in the data set on gamma secretase was 0.00065 µM.
Consider `CC(C)C[C@H](C(=O)O)c1cc(-c2ccc(C(F)(F)F)cc2)cc(-c2ccc(C(F)(F)F)cc2)c1` [JNJ-40418677], for which, in the data set on gamma secretase, the Lit cell conc was 0.18 to 0.2 µM.
Consider `CCc1c(-c2ccccc2C)nc2c(C#N)c[nH]n2c1=O` [CPI-4203], for which the pIC50 in the data set on KDM (setting [8]) was 5.96.
For the molecule `[Ca+2].[Cl-].[Cl-]` [Calcium Chloride], in data set [3], the “Reconstitution time (minutes) water + DMSO” value is listed as “plugs remain at end of 180 minutes” and the “Reconstitution time (minutes) with water” value was “plugs remain at end of 180 minutes”.
Consider `NO` [Hydroxylamine], for which the IC50 on LSD1 [4] is 121 nM.
Consider `COc1ccc2c(c1)c(CC(=O)O)c(C)n2C(=O)c1ccc(Cl)cc1` [Indomethacin], for which, in the data set on gamma secretase, the Lit cell conc was 25 to 50 µM.
As to Tanshindiol B, at EZH2, the IC50 was 520 nM.
As to `CCc1cc(Nc2nc(-c3ccc(-n4cnc(C)c4)c(F)c3)cs2)c(C)cc1C` [NGP 555], the Lit cell conc with gamma secretase is 0.01 µM.
As to `CSc1ccc(/C=C2/C(C)=C(CC(=O)O)c3cc(F)ccc32)cc1` [Suldinac sulfide], the Lit cell conc with gamma secretase is 34 µM.
On to `O=P(O)(O)O` [Potassium Phosphate], for which, in [3], the “Reconstitution time (minutes) water + DMSO” value is on record as “undissolved at end of 180 minutes” and the “Reconstitution time (minutes) with water” value is “undissolved at end of 180 minutes”.
`CCOc1ccc2nc3cc(N)ccc3c(N)c2c1` [Ethacridine, reference compound]: in the data set on Lgr5+ cells (Table 22, result in words), the “Lgr5+ Assay” value was “Activity”.
In the case of `C[C@H](NC(=O)CCC(F)(F)F)C(=O)N[C@@H]1C(=O)N(CCO)c2ncccc2-c2ccccc21` [Crenigacestat LY 3039478], the pIC50 on gamma secretase (Table 23, in most of the tumor cell lines, read-out: Lit cell conc IC50) was about 9.00.
In the case of `C#CCC(CCCCCC)C(=O)[O-].[Na+]` (stereo not drawn) [Sodium 2-(prop-2-yn-1-yl) octanoate, reference compound], the “reconstitution time of lyophilized poloxamer with added organic acid salt” value in data set [3] was found to be 420 min.
In the case of `Clc1ccc(N/N=C(\c2ccccc2)c2ccccn2)nc1` [JIB-04], in the data set with KDM (setting [8]), the pIC50 was 6.66.
For the molecule `O=C(O)CC[C@H]1CC[C@@](c2cc(F)ccc2F)(S(=O)(=O)c2ccc(Cl)cc2)CC1` [MK-0572], the pIC50 on gamma secretase (Table 23, SH-SY5Y cells, read-out: Lit cell conc IC50) was 8.30.
Regarding `COc1cc(C)[nH]c(=O)c1CNC(=O)c1c(C)n([C@H](C)C2CCN(CC(F)(F)F)CC2)c2ccccc12` [CPI-1205], in data set [1] (Table 19), the “Perilymph Conc” value is 0.01 to 1 µM. In addition, the “Human In Vivo Conc” value in [2] (Table 19) was 0.025 to 0.25 µM.
On to `CCOC(=O)CCNc1cc(N2CCc3ccccc3CC2)nc(-c2ccccn2)n1` [GSK-J4], for which the pIC50 is 6.77 in the data set on KDM (setting [8]) and 7.55 in the data set on KDM (Table 21, KDM 6, read-out: Select KDM 6).
As to `COc1nc(-c2cc(C)c(N[C@@H](C)c3ccc(F)cc3)nn2)ccc1-n1cnc(C)c1` [BPN-15606], the pIC50 on gamma secretase (setting [6]) was 7.77; at gamma secretase (setting [7]), 8.15.
Take `COc1ccc(CCN2CCC(Nc3nc4ccccc4n3Cc3ccc(F)cc3)CC2)cc1` [Astemizole]: the IC50 on EZH2 was 94000 nM.
`COc1c(O)cc2oc3cc(O)c(CC=C(C)C)c(O)c3c(=O)c2c1CC=C(C)C` [Alpha-mangostin]: the IC50 at LSD1 [4] was 2800 nM.
For the molecule `N[C@H]1CC[C@H](N[C@@H]2C[C@H]2c2ccccc2)CC1` [ORY-1001], the “Lgr5+ Assay” value in the data set with Lgr5+ cells (Table 18, result in words) was “Activity”.
With `[Cl-].[K+]` [Potassium Chloride], in [3], the “Reconstitution time (minutes) water + DMSO” value is 168 min and the “Reconstitution time (minutes) with water” value stood at 180 min.
In the case of `CC(C(=O)O)c1ccc2c(c1)[nH]c1ccc(Cl)cc12` (stereo not drawn) [Carprofen], the Lit cell conc with gamma secretase is 76 µM.
With `O=C([O-])O.[Na+]` [Sodium Bicarbonate], in [3], the “Reconstitution time (minutes) water + DMSO” value is given as “undissolved at end of 180 minutes” and the “Reconstitution time (minutes) with water” value is recorded as “undissolved at end of 180 minutes”.
On to `C=CC(=O)Nc1cc(Nc2nccc(-c3cn(C)c4ccccc34)n2)c(OC)cc1N(C)CCN(C)C` [Osimertinib], for which the “Literat. Cell” value at LSD1 [5] is 43 nM.
Turning to `C[C@H](c1ccc(F)cc1CCCC(=O)O)N(c1cc(F)ccc1F)S(=O)(=O)c1ccc(Cl)cc1` [BMS 299897], the pIC50 on gamma secretase (setting [6]) was 8.13; at gamma secretase (setting [7]), 8.10.
Regarding `CN(C)CCCNc1nc(NC2CCN(Cc3ccccc3)CC2)c2ccccc2n1` [MC2694], the IC50 on LSD1 [4] was 1000 nM.
For the molecule `[Cl-].[Na+]` [Sodium Chloride], in data set [3], the “Reconstitution time (minutes) water + DMSO” value was 150 min and the “Reconstitution time (minutes) with water” value came out at 150 min.
On to `Cc1cc(C)c(CNC(=O)c2cc(Cl)c3c(c2C)O[C@@](C)([C@H]2CC[C@H](N(C)C)CC2)O3)c(=O)[nH]1` [Valemetostat], for which, in data set [1] (Table 19), the “Perilymph Conc” value fell in the range of 0.01 to 1 µM.
For the molecule `Cc1coc2c1C(=O)C(=O)c1c-2ccc2c1CC[C@@H](O)[C@]2(C)O` [Tanshindiol C], the IC50 at EZH2 is 550 nM.
Regarding `NC(=O)[C@@H](CCC(F)(F)F)N(Cc1ccc(-c2ncon2)cc1F)S(=O)(=O)c1ccc(Cl)cc1` [Avagacestat/BMS-708163], the pIC50 on gamma secretase (setting [6]) was 9.52; at gamma secretase (setting [7]) it was 9.57.
As for `O=S(=O)(N[C@H](CO)C(C(F)(F)F)C(F)(F)F)c1ccc(Cl)s1` [Begacestat/GSI-953], the pEC50 on gamma secretase (Table 23, Aβ40, in cells, read-out: Lit cell conc EC50, lowers Aβ40) is 7.83; at gamma secretase (Table 23, Aβ42, in cells, read-out: Lit cell conc EC50, lowers Aβ42) it was 7.91.
For `CC1=C(C(=O)OC2CCCCC2)C(c2ccc([N+](=O)[O-])cc2)C2=C(CC(C)(C)CC2=O)N1` (stereo not drawn) [FLI-06], the IC50 at LSD1 [4] is 92 nM.
As to `C[C@H](NC(=O)Cc1cc(F)cc(F)c1)C(=O)N[C@H](C(=O)OC(C)(C)C)c1ccccc1` [DAPT], the pIC50 on gamma secretase (Table 23, neuronal culture, Aβ42, read-out: Lit cell conc IC50, Aβ42) is 6.70; on gamma secretase (Table 23, neuronal culture, total Aβ, read-out: Lit cell conc IC50, total Aβ), 6.94.
On to `COc1oc(=O)c2cc(N)ccc2c1Cl` [JLK 6], for which the Lit cell conc in the data set with gamma secretase is 30 µM.
For `[Cl-].[Cl-].[Mg+2]` [Magnesium Chloride], in data set [3], the “Reconstitution time (minutes) water + DMSO” value was found to be 180 min and the “Reconstitution time (minutes) with water” value came to 180 min.
On to `CCc1c(N(CC)C2CCOCC2)cc2oc(C3CCN(C(C)C)CC3)cc2c1C(=O)NCc1c(C)cc(C)[nH]c1=O` [EBI-2511], for which the IC50 at EZH2 is 4 nM.
As for `c1ccc([C@@H]2C[C@H]2NC2CCNCC2)cc1` [GSK-LSD1], the “Perilymph Conc” value in data set [1] (Table 18, lower end of range) is at least 4 nM-; in data set [1] (Table 18, range or its upper end) it was at most 50 µM. Further, the “Human Plasma Conc” value in data set [2] (Table 18) is 1 to 100 nM. Further, the “Lgr5+ Assay” value with Lgr5+ cells (Table 18, lower end of concentration range) is at least 4 nM-.
For the molecule `C=CCNc1nc(N)c(C(=O)c2ccc(Cl)s2)s1` [IBS008738, reference compound], in [1] (Table 22, listed concentration, no test described), the “Perilymph Conc” value was 1.1 to 30 µM. Besides, the “Lgr5+ Assay” value in the data set with Lgr5+ cells (Table 22) was in the range of 1.1 to 30 µM.
With `O=C(O)C1(c2ccc(-c3ccc(Cl)c(Cl)c3)c(F)c2)CC1` [CHF5074], the pIC50 on gamma secretase (setting [6]) was 4.74.
Regarding `CS(=O)(=O)c1ccc(-c2cnc(NCc3ccco3)n3cnnc23)cc1` [EED226], the “Lgr5+ Assay” value in the data set on Lgr5+ cells (Table 19, result in words) is recorded as “Activity”.
